In patent US8771716B2, “Modified release analgesic suspensions” (McNeil-PPC, Inc., priority 2006, dated 2014):

How the values were obtained:
[1] = Typical duration of action (period of therapeutic effect) of an immediate release dose, from labeling; assay type: in vivo
Excerpt: As used herein, “ATDAIRD” shall mean the average therapeutic duration of action of an effective immediate release dose” of a particular active ingredient. […] The therapeutic duration of action of a particular active ingredient can readily be determined from the dosing instructions in the labeling for immediate release products containing that particular active ingredient.

[2] = decongestant; typically administered every 2 to 4 hours; cited from earlier work

Row | Compound | ATDAIRD (average therapeutic duration of action of an effective immediate release dose) [1] | duration of therapeutic effect [2]
1 | CC(C)Cc1ccc(C(C)C(=O)O)cc1 (centres unmarked) [ibuprofen, 2-(4-isobutylphenyl)-propionic acid] | 5 h | –
2 | CC(C(=O)O)c1cccc(C(=O)c2ccccc2)c1 (centres unmarked) [ketoprofen] | 5 h | –
3 | COc1ccc2cc([C@H](C)C(=O)O)ccc2c1 [naproxen] | 10 h | –
4 | CNC[C@H](O)c1cccc(O)c1 [phenylephrine, benzynemethanol, 3-hydroxy-α-[(methylamino)methyl]] | – | about 2.5 hours
5 | CN[C@@H](C)[C@@H](O)c1ccccc1 [psuedoephedrine] | about 3 hours | –
